# According to patent publication US11028079B2 (ConverGene LLC, priority 2015, dated 2021):
# Biological target: T1, BRD4 bromodomains (Homo sapiens, UniProt O60885)
# T1 construct: fused on or other part: T7 phage capsid protein (phage-display fusion; the phage DNA is read out by qPCR)
# Test: BROMOscan bromodomain competition binding assay (DiscoveRx)
# Conditions: Kd from 11 compound concentrations ranging from 0 to 10 μM, read-out: BROMOscan Relative Activity
# Method: Bromodomain assays were conducted to measure interactions between certain compounds and bromodomains.
# The assays were conducted according to BROMOscan protocol from Discover Rx. Briefly, BRD4 bromodomains expressed as a fusion capsid protein of T7 phage were bound to acetylated peptide ligand on a solid phase and competition bindings were performed. T7 phage strains displaying bromodomains were grown in parallel in 24-well blocks in an E. coli host derived from the BL21 strain. E. coli were grown to log-phase and infected with T7 phage from a frozen stock (multiplicity of infection=0.4) and incubated with shaking at 32° C. until lysis (90-150 minutes). The lysates were centrifuged (5,000×g) and filtered (0.2 μm) to remove cell debris. […] The liganded beads were blocked with excess biotin and washed with blocking buffer (SeaBlock (Pierce), 1% BSA, 0.05% Tween 20, 1 mM DTT) to remove unbound ligand and to reduce non-specific phage binding. […] Test compounds were prepared as 1000× stocks in 100% DMSO and subsequently diluted 1:10 in monoethylene glycol (MEG) to create stocks at 100× the screening concentration (resulting stock solution is 10% DMSO/90% MEG). The compounds were then diluted directly into the assays such that the final concentration of DMSO and MEG were 0.1% and 0.9%, respectively. All reactions were performed in polystyrene 96-well plates in a final volume of 0.135 ml. […] The bromodomain concentration in the eluates was measured by qPCR. Data was collected at 11 compound concentrations ranging from 0 to 10 μM. Kd values were then derived from a standard dose-response curve generated with Hill equation (Hill Slope was set to ˜1) and a non-linear least square fit with the Levenberg-Marquardt algorithm. Response=Background+Signal−Background/1+(Kd Hill Slope/Dose Hill Slope)
row,Compound,Kd
1,"CN(C)CCN1CCN(c2nc(NCc3cccc(Cl)c3)c3cc(-c4cn[nH]c4)ccc3n2)CC1 [Example 64, N-(3-chlorobenzyl)-2-(4-(2-(dimethylamino)ethyl)piperazin-1-yl)-6-(1H-pyrazol-4-yl)quinazolin-4-amine]",> 5 µM
2,"Cc1n[nH]c(C)c1-c1ccc2nc(N3CCN(CCN(C)C)CC3)nc(NCc3cccc(Cl)c3)c2c1 [Example 65, N-(3-chlorobenzyl)-6-(3,5-dimethyl-1H-pyrazol-4-yl)-2-(4-(2-(dimethylamino)ethyl)piperazin-1-yl)quinazolin-4-amine]",0.5 to 5 µM
3,"CN(C)CCN1CCN(c2nc(NCc3cccc(Cl)c3)c3cc(-c4ccc(=O)n(C)c4)ccc3n2)CC1 [Example 66, 5-(4-((3-chlorobenzyl)amino)-2-(4-(2-(dimethylamino)ethyl)piperazin-1-yl)quinazolin-6-yl)-1-methylpyridin-2(1H)-one]",< 0.5 µM
4,"CN(C)CCN1CCN(c2nc(NCc3cccc(Cl)c3)c3cc(-c4ccc(O)nc4)ccc3n2)CC1 [Example 67, 5-(4-((3-chlorobenzyl)amino)-2-(4-(2-(dimethylamino)ethyl)piperazin-1-yl)quinazolin-6-yl)pyridin-2-ol]",0.5 to 5 µM
5,"Cc1noc(C)c1-c1ccc2nc(N3CCN(CCN(C)C)CC3)nc(O)c2c1 [Example 68, 2-(4-(2-(dimethylamino)ethyl)piperazin-1-yl)-6-(3,5-dimethylisoxazol-4-yl)quinazolin-4-ol]",0.5 to 5 µM
6,"Cc1noc(C)c1-c1ccc2nc(-c3c(C)noc3C)nc(NCc3cccs3)c2c1 [Example 69, 2,6-bis(3,5-dimethylisoxazol-4-yl)-N-(thiophen-2-ylmethyl)quinazolin-4-amine]",0.5 to 5 µM
7,"Cc1noc(C)c1-c1ccc2nc(-c3c(C)noc3C)nc(NCc3cccc(Cl)c3)c2c1 [Example 70, N-(3-chlorobenzyl)-2,6-bis(3,5-dimethylisoxazol-4-yl)quinazolin-4-amine]",0.5 to 5 µM
8,"Cc1noc(C)c1-c1ccc2nc(N3CCN(CCN(C)C)CC3)nc(NCc3cccs3)c2c1 [Example 71, 2-(4-(2-(dimethylamino)ethyl)piperazin-1-yl)-6-(3,5-dimethylisoxazol-4-yl)-N-(thiophen-2-ylmethyl)quinazolin-4-amine]",< 0.5 µM
9,"COc1ccccc1CNc1nc(N2CCN(CCN(C)C)CC2)nc2ccc(-c3c(C)noc3C)cc12 [Example 72, 2-(4-(2-(dimethylamino)ethyl)piperazin-1-yl)-6-(3,5-dimethylisoxazol-4-yl)-N-(2-methoxybenzyl)quinazolin-4-amine]",< 0.5 µM
10,"COc1cccc(CNc2nc(N3CCN(CCN(C)C)CC3)nc3ccc(-c4c(C)noc4C)cc23)c1 [Example 73, 2-(4-(2-(dimethylamino)ethyl)piperazin-1-yl)-6-(3,5-dimethylisoxazol-4-yl)-N-(3-methoxybenzyl)quinazolin-4-amine]",< 0.5 µM
11,"Cc1noc(C)c1-c1ccc2nc(N3CCN(CCN(C)C)CC3)nc(NCc3ccccc3Cl)c2c1 [Example 74, N-(2-chlorobenzyl)-2-(4-(2-(dimethylamino)ethyl)piperazin-1-yl)-6-(3,5-dimethylisoxazol-4-yl)quinazolin-4-amine]",< 0.5 µM
12,"Cc1noc(C)c1-c1ccc2nc(N3CCN(CCN(C)C)CC3)nc(NCc3cccc(Br)c3)c2c1 [Example 75, N-(3-bromobenzyl)-2-(4-(2-(dimethylamino)ethyl)piperazin-1-yl)-6-(3,5-dimethylisoxazol-4-yl)quinazolin-4-amine]",< 0.5 µM
13,"Cc1noc(C)c1-c1ccc2nc(N3CCN(CCN(C)C)CC3)nc(NCc3ccccc3F)c2c1 [Example 76, 2-(4-(2-(dimethylamino)ethyl)piperazin-1-yl)-6-(3,5-dimethylisoxazol-4-yl)-N-(2-fluorobenzyl)quinazolin-4-amine]",< 0.5 µM
14,"Cc1noc(C)c1-c1ccc2nc(N3CCN(CCN(C)C)CC3)nc(NCc3cccc(F)c3)c2c1 [Example 77, 2-(4-(2-(dimethylamino)ethyl)piperazin-1-yl)-6-(3,5-dimethylisoxazol-4-yl)-N-(3-fluorobenzyl)quinazolin-4-amine]",< 0.5 µM
15,"Cc1oncc1-c1ccc2nc(N3CCN(CCN(C)C)CC3)nc(NCc3cccc(Cl)c3)c2c1 [Example 78, N-(3-chlorobenzyl)-2-(4-(2-(dimethylamino)ethyl)piperazin-1-yl)-6-(5-methylisoxazol-4-yl)quinazolin-4-amine]",0.5 to 5 µM
16,"Cc1noc(C)c1-c1ccc2nc(N3CCN(CCN(C)C)CC3)nc(NCc3ccco3)c2c1 [Example 79, 2-(4-(2-(dimethylamino)ethyl)piperazin-1-yl)-6-(3,5-dimethylisoxazol-4-yl)-N-(furan-2-ylmethyl)quinazolin-4-amine]",0.5 to 5 µM
17,"Cc1noc(C)c1-c1ccc2nc(N3CCN(CCN(C)C)CC3)nc(NCc3cccnc3)c2c1 [Example 80, 2-(4-(2-(dimethylamino)ethyl)piperazin-1-yl)-6-(3,5-dimethylisoxazol-4-yl)-N-(pyridin-3-ylmethyl)quinazolin-4-amine]",< 0.5 µM
18,"Cc1noc(C)c1-c1ccc2nc(N3CCN(CCN(C)C)CC3)nc(NCc3cncc(Cl)c3)c2c1 [Example 81, N-((5-chloropyridin-3-yl)methyl)-2-(4-(2-(dimethylamino)ethyl)piperazin-1-yl)-6-(3,5-dimethylisoxazol-4-yl)quinazolin-4-amine]",< 0.5 µM
19,"Cc1noc(C)c1-c1ccc2nc(N3CCN(CCN(C)C)CC3)nc(NCc3cc(Cl)ccn3)c2c1 [Example 82, N-((4-chloropyridin-2-yl)methyl)-2-(4-(2-(dimethylamino)ethyl)piperazin-1-yl)-6-(3,5-dimethylisoxazol-4-yl)quinazolin-4-amine]",< 0.5 µM
20,"Cc1noc(C)c1-c1ccc2nc(N3CCN(CCN(C)C)CC3)nc(NCc3cncc(F)c3)c2c1 [Example 83, 2-(4-(2-(dimethylamino)ethyl)piperazin-1-yl)-6-(3,5-dimethylisoxazol-4-yl)-N-((5-fluoropyridin-3-yl)methyl)quinazolin-4-amine]",< 0.5 µM
21,"Cc1ccncc1CNc1nc(N2CCN(CCN(C)C)CC2)nc2ccc(-c3c(C)noc3C)cc12 [Example 84, 2-(4-(2-(dimethylamino)ethyl)piperazin-1-yl)-6-(3,5-dimethylisoxazol-4-yl)-N-((4-methylpyridin-3-yl)methyl)quinazolin-4-amine]",< 0.5 µM
22,"Cc1noc(C)c1-c1ccc2nc(N3CCN(CCN(C)C)CC3)nc(N(C)Cc3cccc(Cl)c3)c2c1 [Example 85, N-(3-chlorobenzyl)-2-(4-(2-(dimethylamino)ethyl)piperazin-1-yl)-6-(3,5-dimethylisoxazol-4-yl)-N-methylquinazolin-4-amine]",< 0.5 µM
23,"CN(C)CCN1CCN(c2nc(NCc3cccc(Cl)c3)c3cc(-c4cnc(O)c(F)c4)ccc3n2)CC1 [Example 86, 5-(4-((3-chlorobenzyl)amino)-2-(4-(2-(dimethylamino)ethyl)piperazin-1-yl)quinazolin-6-yl)-3-fluoropyridin-2-ol]",0.5 to 5 µM
24,"Cc1csc(CNc2nc(N3CCN(CCN(C)C)CC3)nc3ccc(-c4c(C)noc4C)cc23)c1 [Example 87, 2-(4-(2-(dimethylamino)ethyl)piperazin-1-yl)-6-(3,5-dimethylisoxazol-4-yl)-N-((4-methylthiophen-2-yl)methyl)quinazolin-4-amine]",< 0.5 µM
25,"Cc1ccc(CNc2nc(N3CCN(CCN(C)C)CC3)nc3ccc(-c4c(C)noc4C)cc23)s1 [Example 88, 2-(4-(2-(dimethylamino)ethyl)piperazin-1-yl)-6-(3,5-dimethylisoxazol-4-yl)-N-((5-methylthiophen-2-yl)methyl)quinazolin-4-amine]",< 0.5 µM
26,"Cc1noc(C)c1-c1ccc2nc(N3CCN(CCN(C)C)CC3)nc(NC(C)c3cccs3)c2c1 (centres unmarked) [Example 89, 2-(4-(2-(dimethylamino)ethyl)piperazin-1-yl)-6-(3,5-dimethylisoxazol-4-yl)-N-(1-(thiophen-2-yl)ethyl)quinazolin-4-amine]",< 0.5 µM
27,"Cc1noc(C)c1-c1ccc2nc(N3CCN(CCN(C)C)CC3)nc(NC(C)c3cccc(Cl)c3)c2c1 (centres unmarked) [Example 90, N-(1-(3-chlorophenyl)ethyl)-2-(4-(2-(dimethylamino)ethyl)piperazin-1-yl)-6-(3,5-dimethylisoxazol-4-yl)quinazolin-4-amine]",< 0.5 µM
28,"Cc1cc(-c2ccc3nc(N4CCN(CCN(C)C)CC4)nc(NCc4cccc(Cl)c4)c3c2)cnc1O [Example 91, 5-(4-((3-chlorobenzyl)amino)-2-(4-(2-(dimethylamino)ethyl)piperazin-1-yl)quinazolin-6-yl)-3-methylpyridin-2-ol]",< 0.5 µM
29,"Cc1noc(C)c1-c1ccc2nc(N3CCN(CCN(C)C)CC3)nc(NCc3ccccc3)c2c1 [Example 92, N-benzyl-2-(4-(2-(dimethylamino)ethyl)piperazin-1-yl)-6-(3,5-dimethylisoxazol-4-yl)quinazolin-4-amine]",< 0.5 µM
